Assay results reported in US12268757B2, “Cyclen based compounds, coordination compounds, peptides, pharmaceutical preparation, and use thereof” (USTAV ORGANICKE CHEMIE A BIOCHEMIE AV CR V.V.I., priority 2019, dated 2025).

Assays:
[1] = Kinetic inertness: acid-assisted decomplexation followed by HPLC; format: physicochemical; settings: pH ~2.0, 40° C.; for Peak area of intact chelate: TFA 0.08%, UV 280 nm
Experimental: Stability (kinetic inertness) of the Gd(III) building block Gd-3 prepared in Example 4 was tested by following acid-assisted decomplexation by HPLC. Isocratic elution method was used for analysis. Constant concentration of TFA (0.08%) was maintained in the mobile phase (pH ˜2.0), while methanol content was varied to tune the retention time of the analyte. With increasing retention time (i.e. time spent in the acidic medium), more decomplexation should occur and the amount of intact chelate should decrease mono-exponentially (pseudo first-order reaction conditions), while a peak of free chelator should appear in the chromatogram. The HPLC conditions were as follows: column Kinetex C18, 100×3 mm, 2.6 um; column temperature maintained at 40° C.; mobile phase: TFA (constant 0.08% vol.), MeOH (variable), water; flow-rate 0.6 mL/min; UV detection at 280 nm; injection of 2 uL of 0.5 mM sample.

[2] = Relaxivity of Gd(III) chelates; format: physicochemical
Experimental: Relaxivity of Gd(III) chelate Gd-6 and of a peptide Gly-Phe-(Gd-6)-Gly-NH2 have been measured at 40° C. and 0.5 T in 10 mM MOPS buffer pH=7.0. It is apparent from the data that the relaxivity of the peptide, where the Gd-6 is incorporated within the peptide chain, is higher than the relaxivity of a standalone Gd-6.

Substance | Peak area of intact chelate ([1]; 36% methanol in mobile phase, retention time 6.894 min) [mAU · s] | Peak area of intact chelate ([1]; 37% methanol in mobile phase, retention time 6.072 min) [mAU · s] | Peak area of intact chelate ([1]; 38% methanol in mobile phase, retention time 5.570 min) [mAU · s] | Peak area of intact chelate ([1]; 39% methanol in mobile phase, retention time 5.044 min) [mAU · s] | Peak area of intact chelate ([1]; 40% methanol in mobile phase, retention time 4.632 min) [mAU · s] | Stability (kinetic inertness) under acidic conditions ([1]; with increasing retention time in TFA 0.08% mobile phase) | Relaxivity r1 at 40° C., and 0.5 T ([2]; 10 mM MOPS buffer pH=7.0, calculated r1 = R1/c) [mM⁻¹ s⁻¹] | Relaxation time T1 ([2]; 40° C., 0.5 T, 10 mM MOPS buffer pH=7.0) [ms]
Gd(III) Complex of 2,2′,2″-(10-((2S,3S,4S)-1-(2-(9H-fluoren-9-yl)acetoxy)-2-carboxy-4-hydroxypyrrolidin-3-yl)-1,4,7,10-tetraazacyclododecane-1,4,7-triyl)triacetic acid [Gd-3] | 690.9 | 686.6 | 688.4 | 685.5 | 681.6 | no decrease in the peak area |  | 
Gd(III) Complex of 2,2′,2″-(10-((2S,3S,4S)-2-carboxy-4-hydroxypyrrolidin-3-yl)-1,4,7,10-tetraazacyclododecane-1,4,7-triyl)triacetic acid [Gd-6] |  |  |  |  |  |  | 3.5 | 1562
